Data: the NIST ThermoML archive (doi:10.1021/acs.jced.6b00718)

Test: xn = mol fraction of the nth substance listed
Details: 101 kPa, Liquid; for viscosity: Falling or rolling sphere viscometry; for mass density: Vibrating tube method; for electrical conductivity: Alternating current cell with electrodes, x2 = 0.1402

CCCC#N [butanenitrile] + CCCC[N+]1(C)CCCC1.O=S(=O)([N-]S(=O)(=O)C(F)(F)F)C(F)(F)F
Details | mass density [kg/m3] | viscosity [mPa·s]
293.15 K, x2 = 0 | 791.1 | 0.88
293.15 K, x2 = 0.1003 | 965 | –
293.15 K, x2 = 0.1009 | – | 1.51
293.15 K, x2 = 0.1987 | – | 2.73
293.15 K, x2 = 0.1994 | 1078.7 | –
293.15 K, x2 = 0.3001 | 1160.1 | –
293.15 K, x2 = 0.3002 | – | 6.43
293.15 K, x2 = 0.4 | – | 8.77
293.15 K, x2 = 0.4006 | 1220.4 | –
293.15 K, x2 = 0.4999 | 1267.7 | –
293.15 K, x2 = 0.5012 | – | 14.45
293.15 K, x2 = 0.6 | 1304.7 | 22.39
293.15 K, x2 = 0.7 | 1335.1 | 33.65
293.15 K, x2 = 0.8 | 1360.6 | 49.94
293.15 K, x2 = 0.9 | – | 73.01
293.15 K, x2 = 0.9007 | 1382 | –
298.15 K, x2 = 0 | 786.4 | 0.86
298.15 K, x2 = 0.1003 | 960.4 | –
298.15 K, x2 = 0.1009 | – | 1.45
298.15 K, x2 = 0.1987 | – | 2.53
298.15 K, x2 = 0.1994 | 1074.3 | –
298.15 K, x2 = 0.3001 | 1155.4 | –
298.15 K, x2 = 0.3002 | – | 5.72
298.15 K, x2 = 0.4 | – | 7.81
298.15 K, x2 = 0.4006 | 1216.1 | –
298.15 K, x2 = 0.4999 | 1263.2 | –
298.15 K, x2 = 0.5012 | – | 12.44
298.15 K, x2 = 0.6 | 1300 | 18.94
298.15 K, x2 = 0.7 | 1330.5 | 27.95
298.15 K, x2 = 0.8 | 1356 | 40.71
298.15 K, x2 = 0.9 | – | 58.33
298.15 K, x2 = 0.9007 | 1377.5 | –
303.15 K, x2 = 0 | 781.8 | 0.84
303.15 K, x2 = 0.1003 | 955.7 | –
303.15 K, x2 = 0.1009 | – | 1.37
303.15 K, x2 = 0.1987 | – | 2.37
303.15 K, x2 = 0.1994 | 1069.6 | –
303.15 K, x2 = 0.3001 | 1150.8 | –
303.15 K, x2 = 0.3002 | – | 5.13
303.15 K, x2 = 0.4 | – | 7.14
303.15 K, x2 = 0.4006 | 1211.4 | –
303.15 K, x2 = 0.4999 | 1258.6 | –
303.15 K, x2 = 0.5012 | – | 10.81
303.15 K, x2 = 0.6 | 1295.5 | 16.2
303.15 K, x2 = 0.7 | 1326 | 23.51
303.15 K, x2 = 0.8 | 1351.5 | 33.68
303.15 K, x2 = 0.9 | – | 47.41
303.15 K, x2 = 0.9007 | 1373 | –
313.15 K, x2 = 0 | 772.4 | 0.81
313.15 K, x2 = 0.1003 | 946.2 | –
313.15 K, x2 = 0.1009 | – | 1.25
313.15 K, x2 = 0.1987 | – | 2.07
313.15 K, x2 = 0.1994 | 1060.1 | –
313.15 K, x2 = 0.3001 | 1141.4 | –
313.15 K, x2 = 0.3002 | – | 4.22
313.15 K, x2 = 0.4 | – | 5.68
313.15 K, x2 = 0.4006 | 1202.1 | –
313.15 K, x2 = 0.4999 | 1249.3 | –
313.15 K, x2 = 0.5012 | – | 8.38
313.15 K, x2 = 0.6 | 1286.2 | 12.18
313.15 K, x2 = 0.7 | 1316.8 | 17.18
313.15 K, x2 = 0.8 | 1342.3 | 23.91
313.15 K, x2 = 0.9 | – | 32.67
313.15 K, x2 = 0.9007 | 1363.8 | –
323.15 K, x2 = 0 | 763 | 0.78
323.15 K, x2 = 0.1003 | 936.8 | –
323.15 K, x2 = 0.1009 | – | 1.17
323.15 K, x2 = 0.1987 | – | 1.84
323.15 K, x2 = 0.1994 | 1050.7 | –
323.15 K, x2 = 0.3001 | 1132.1 | –
323.15 K, x2 = 0.3002 | – | 3.52
323.15 K, x2 = 0.4 | – | 4.62
323.15 K, x2 = 0.4006 | 1192.9 | –
323.15 K, x2 = 0.4999 | 1240.2 | –
323.15 K, x2 = 0.5012 | – | 6.67
323.15 K, x2 = 0.6 | 1277.2 | 9.47
323.15 K, x2 = 0.7 | 1307.9 | 13.04
323.15 K, x2 = 0.8 | 1333.3 | 17.69
323.15 K, x2 = 0.9 | – | 23.59
323.15 K, x2 = 0.9007 | 1354.9 | –
333.15 K, x2 = 0 | 753.5 | 0.75
333.15 K, x2 = 0.1003 | 927.3 | –
333.15 K, x2 = 0.1009 | – | 1.12
333.15 K, x2 = 0.1987 | – | 1.65
333.15 K, x2 = 0.1994 | 1041.1 | –
333.15 K, x2 = 0.3001 | 1122.9 | –
333.15 K, x2 = 0.3002 | – | 3.03
333.15 K, x2 = 0.4 | – | 3.85
333.15 K, x2 = 0.4006 | 1183.7 | –
333.15 K, x2 = 0.4999 | 1231 | –
333.15 K, x2 = 0.5012 | – | 5.43
333.15 K, x2 = 0.6 | 1268.3 | 7.55
333.15 K, x2 = 0.7 | 1298.9 | 10.2
333.15 K, x2 = 0.8 | 1324.1 | 13.55
333.15 K, x2 = 0.9 | – | 17.71
333.15 K, x2 = 0.9007 | 1345.7 | –

Details | electrical conductivity [S/m]
293.2 K | 1.69
299.5 K | 1.85
302.7 K | 1.97
310 K | 2.19
313.7 K | 2.3
324.6 K | 2.62
334 K | 2.9
